Source: PubChem BioAssay AID2060902 (Molecular Pharmacology Branch, DTP, NCI, 2025)
pIC50: −log10 of the molar value.

Test system: 485368-065-R3-J5-PDC spheroids with HUVEC/MSC, viability
Test: Anticancer human tumor 485368-065-R3-J5-PDC patient-derived pancreatic carcinoma cell line growth inhibition [RAS]
Settings: for pIC50: curve of first compound; for viability, T/C: stronger effect = lower value
Description: RAS pathway inhibitors in Combinations in Complex Spheroids
A high-throughput screen of multi-cell type tumor spheroids was designed to identify active combinations of RAS pathway inhibitors and targeted small molecules. Complex spheroids include a stromal component modeled by human endothelial cells (HUVEC) and fibroblasts modeled by human mesenchymal stem cells (MSCs). The concentration ranges selected for each drug and investigational agent were based upon clinically achievable concentrations if the clinical Cmax of the agent was known.
Compounds. The drugs and investigational agents: abemaciclib (NSC768073), cobimetinib (NSC768068), divarasib (GDC6063, NSC841802), docetaxel (NSC628503), GDC-1971 (RLY-1971, NSC841576), gemcitabine (NSC613327), inavolisib (NSC800729), ipatasertib (NSC767898), KB-0742 (NSC834161), MRTX-1133 (NSC836407), osimertinib (NSC779217), RMC-4630 (NSC839698), RMC-6236 (NSC851965), RMC-6291 (NSC852671), Ro-3306 (NSC812927), sapanisertib (NSC764658), SN-38 (NSC673596), staurosporine (NSC755774), SY5609 (NSC837396), and tovorafenib (DAY101, NSC766906), were obtained from the National Cancer Institute (NCI) Developmental Therapeutics Program Chemical Repository. The FDA-approved anticancer drug set is available from the NCI Developmental Therapeutics Program. […] The stock solutions were prepared in dimethyl sulfoxide (DMSO, Sigma-Aldrich, St. Louis, MO, cat. D2650) at 800-fold the tested concentration and stored at -70 degrees C prior to their use. All drugs and investigational agents were tested over a range starting from a high concentration at or near the clinical Cmax and decreasing in half-log increments. If the clinical Cmax for an agent had not been determined, the highest concentration tested was 10 microM.
Cell Culture. All cells were maintained in an incubator at 37 degrees C and 5% CO2 with 95% humidity. The PDC lines were cultured according to standard operating procedures established by the NCI PDMR. All PDCs were thawed and cultured in Matrigel-coated flasks prepared with a working solution of 1X Ham's F-12 nutrient mix, without supplementation (Invitrogen, Waltham, MA, cat. 11765054), 100 U/mL penicillin-streptomycin (Invitrogen, cat. 15140122), and 2.5% Matrigel (Corning Inc., Corning, NY, cat. 354248) for the first three passages. The 362531-283-R-J2-PDC and 782815-120-R-J1-PDC lines were cultured in 6C/Colon 1B media, which includes advanced DMEM/F-12 (Thermo Fisher Scientific, cat. 12634028), 10 mM HEPES (Thermo Fisher Scientific, cat. 15630080), 1X GlutaMAX supplement (Thermo Fisher Scientific, cat. 35050061), 0.1 mg/mL primocin (InvivoGen, San Diego, CA, cat. ant-pm-2), 10% defined fetal bovine serum, heat inactivated (HyClone Laboratories Inc., Logan, UT, cat. SH30070.03HI), 50% L-WRN conditioned media (ATCC, cat. CRL-3276), 1.25 mM N-Acetyl-L-cysteine (Sigma-Aldrich, cat. A9165), 10 mM nicotinamide (Sigma-Aldrich, cat. N0636), 1X B-27 supplement (Thermo Fisher Scientific, cat. 17504044), 1X N-2 supplement (Thermo Fisher Scientific, cat. 17502048), 50 ng/mL human EGF (Thermo Fisher Scientific, cat. PHG0311), and 10 microM Y-27632 dihydrochloride (Tocris Bioscience, cat. 1254). The K12877-001-R-J1-PDC line was cultured in 6I media, which includes all 6C/Colon 1B media plus 10 ng/mL human FGF-10 (PeproTech, cat. 100-26), 1 ng/mL human FGF-2 (PeproTech, cat. 100-18B), 1 µM prostaglandin E2 (Tocris Bioscience, cat. 2296), […] hydrocortisone (Sigma-Aldrich, cat. H4001), and […] bovine insulin (Sigma-Aldrich, cat. I6634). The K86415-001-R-J1-PDC line was cultured in 6D media, which includes all 6C/Colon 1B media components minus the L-WRN conditioned media. The 485176-168-R4-J1-PDC was cultured in PANC media, which includes all 6C/Colon 1B media plus 100 ng/mL human FGF-10 (PeproTech, cat. 100-26), 500 nM SB-431542 (Selleckchem, cat. S1067), and 10 nM gastrin (Tocris Bioscience, cat. 3006). […]

[1] = second compound 0.0316 µM, first compound 0.0316 µM
[2] = second compound 0.0316 µM, first compound 0.1 µM
[3] = second compound 0.1 µM, first compound 0.0316 µM
[4] = second compound 0.1 µM, first compound 0.1 µM
[5] = second compound 0.316 µM, first compound 0.0316 µM
[6] = second compound 0.316 µM, first compound 0.1 µM
[7] = second compound 1 µM, first compound 0.0316 µM
[8] = second compound 1 µM, first compound 0.1 µM
[9] = second compound 3.16 µM, first compound 0.0316 µM
[10] = second compound 3.16 µM, first compound 0.1 µM
[11] = second compound 10 µM, first compound 0.0316 µM
[12] = second compound 10 µM, first compound 0.1 µM
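Also: spheroids exposed to agents for seven days before readout.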

## CC(C)n1nc(-c2ccc3oc(N)nc3c2)c2c(N)ncnc21 + C#Cc1c(F)ccc2cc(O)cc(-c3ncc4c(N5CC6CCC(C5)N6)nc(OCC56CCCN5CC(F)C6)nc4c3F)c12
Second compound 0.0316 µM
  pIC50: 7.72
Second compound 0.1 µM
  pIC50: 7.73
Second compound 0.316 µM
  pIC50: 7.77
Second compound 1 µM
  pIC50: 7.76
Second compound 3.16 µM
  pIC50: 7.94
Second compound 10 µM
  pIC50: > 9.50
Second compound 0.0316 µM, first compound 0.000316 µM
  viability, T/C: 96.7%
Second compound 0.0316 µM, first compound 0.001 µM
  viability, T/C: 97%
Second compound 0.0316 µM, first compound 0.00316 µM
  viability, T/C: 76.4%
Second compound 0.0316 µM, first compound 0.01 µM
  viability, T/C: 65.5%
[1]
  viability, T/C: 39.3%
[2]
  viability, T/C: 18.7%
Second compound 0.1 µM, first compound 0.000316 µM
  viability, T/C: 97.3%
Second compound 0.1 µM, first compound 0.001 µM
  viability, T/C: 90.6%
Second compound 0.1 µM, first compound 0.00316 µM
  viability, T/C: 88.9%
Second compound 0.1 µM, first compound 0.01 µM
  viability, T/C: 65.7%
[3]
  viability, T/C: 36.4%
[4]
  viability, T/C: 18.7%
Second compound 0.316 µM, first compound 0.000316 µM
  viability, T/C: 99.8%
Second compound 0.316 µM, first compound 0.001 µM
  viability, T/C: 99.4%
Second compound 0.316 µM, first compound 0.00316 µM
  viability, T/C: 83.6%
Second compound 0.316 µM, first compound 0.01 µM
  viability, T/C: 61.8%
[5]
  viability, T/C: 36.1%
[6]
  viability, T/C: 18.7%
Second compound 1 µM, first compound 0.000316 µM
  viability, T/C: 101%
Second compound 1 µM, first compound 0.001 µM
  viability, T/C: 96.8%
Second compound 1 µM, first compound 0.00316 µM
  viability, T/C: 82.8%
Second compound 1 µM, first compound 0.01 µM
  viability, T/C: 63.6%
[7]
  viability, T/C: 35.7%
[8]
  viability, T/C: 17.8%
Second compound 3.16 µM, first compound 0.000316 µM
  viability, T/C: 71.3%
Second compound 3.16 µM, first compound 0.001 µM
  viability, T/C: 76.5%
Second compound 3.16 µM, first compound 0.00316 µM
  viability, T/C: 67.2%
Second compound 3.16 µM, first compound 0.01 µM
  viability, T/C: 52.9%
[9]
  viability, T/C: 28.9%
[10]
  viability, T/C: 14.8%
Second compound 10 µM, first compound 0.000316 µM
  viability, T/C: 47.3%
Second compound 10 µM, first compound 0.001 µM
  viability, T/C: 36%
Second compound 10 µM, first compound 0.00316 µM
  viability, T/C: 32.2%
Second compound 10 µM, first compound 0.01 µM
  viability, T/C: 31.1%
[11]
  viability, T/C: 18.1%
[12]
  viability, T/C: 13.1%

## C[C@@H](NC(=O)c1ncnc(N)c1Cl)c1ncc(C(=O)Nc2cc(C(F)(F)F)c(Cl)cn2)s1 + C#Cc1c(F)ccc2cc(O)cc(-c3ncc4c(N5CC6CCC(C5)N6)nc(OCC56CCCN5CC(F)C6)nc4c3F)c12
Second compound 0.0316 µM
  pIC50: < 5.00
Second compound 0.1 µM
  pIC50: < 5.00
Second compound 0.316 µM
  pIC50: < 5.00
Second compound 1 µM
  pIC50: < 5.00
Second compound 3.16 µM
  pIC50: < 5.00
Second compound 10 µM
  pIC50: 6.28
[1]
  viability, T/C: 103%
[2]
  viability, T/C: 105%
Second compound 0.0316 µM, first compound 0.316 µM
  viability, T/C: 114%
Second compound 0.0316 µM, first compound 1 µM
  viability, T/C: 114%
Second compound 0.0316 µM, first compound 3.16 µM
  viability, T/C: 98%
Second compound 0.0316 µM, first compound 10 µM
  viability, T/C: 69.7%
[3]
  viability, T/C: 111%
[4]
  viability, T/C: 115%
Second compound 0.1 µM, first compound 0.316 µM
  viability, T/C: 113%
Second compound 0.1 µM, first compound 1 µM
  viability, T/C: 113%
Second compound 0.1 µM, first compound 3.16 µM
  viability, T/C: 96.5%
Second compound 0.1 µM, first compound 10 µM
  viability, T/C: 57.9%
[5]
  viability, T/C: 101%
[6]
  viability, T/C: 104%
Second compound 0.316 µM, first compound 0.316 µM
  viability, T/C: 105%
Second compound 0.316 µM, first compound 1 µM
  viability, T/C: 100%
Second compound 0.316 µM, first compound 3.16 µM
  viability, T/C: 93.2%
Second compound 0.316 µM, first compound 10 µM
  viability, T/C: 75.2%
[7]
  viability, T/C: 109%
[8]
  viability, T/C: 106%
Second compound 1 µM, first compound 0.316 µM
  viability, T/C: 104%
Second compound 1 µM, first compound 1 µM
  viability, T/C: 106%
Second compound 1 µM, first compound 3.16 µM
  viability, T/C: 96%
Second compound 1 µM, first compound 10 µM
  viability, T/C: 69.9%
[9]
  viability, T/C: 97.6%
[10]
  viability, T/C: 98.6%
Second compound 3.16 µM, first compound 0.316 µM
  viability, T/C: 94.5%
Second compound 3.16 µM, first compound 1 µM
  viability, T/C: 93.3%
Second compound 3.16 µM, first compound 3.16 µM
  viability, T/C: 89.1%
Second compound 3.16 µM, first compound 10 µM
  viability, T/C: 62%
[11]
  viability, T/C: 53.5%
[12]
  viability, T/C: 50.5%
Second compound 10 µM, first compound 0.316 µM
  viability, T/C: 50.3%
Second compound 10 µM, first compound 1 µM
  viability, T/C: 46%
Second compound 10 µM, first compound 3.16 µM
  viability, T/C: 52.6%
Second compound 10 µM, first compound 10 µM
  viability, T/C: 46.9%
